Reference: patent US12053470B2, “Pharmaceutical combination comprising an ALK inhibitor and a SHP2 inhibitor” (Novartis AG, priority 2017, dated 2024)

Assays:
SHP2 = SHP2 (Homo sapiens (Human), UniProt Q06124); test: SHP2 allosteric inhibition assay (DiFMUP prompt fluorescence); type: biochemical
[1] = system: Ceritinib resistant MGH049 cells; test: Cell colony formation assay with ceritinib resistant MGH049 cells;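 also: tested compounds are SHP2 inhibitors given alone, colonies fixed and crystal violet stained, DMSO reference taken as the mean of six readings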; type: cell-based, human; conditions: Homo sapiens, 168 h; compound of Table 1 (3 μM) alone, 7 days; normalized to DMSO without compound = 100; read-out: Normalized Crystal Violet abs. (590 nm) DMSO

Sequence of SHP2 (Q06124 whole entry): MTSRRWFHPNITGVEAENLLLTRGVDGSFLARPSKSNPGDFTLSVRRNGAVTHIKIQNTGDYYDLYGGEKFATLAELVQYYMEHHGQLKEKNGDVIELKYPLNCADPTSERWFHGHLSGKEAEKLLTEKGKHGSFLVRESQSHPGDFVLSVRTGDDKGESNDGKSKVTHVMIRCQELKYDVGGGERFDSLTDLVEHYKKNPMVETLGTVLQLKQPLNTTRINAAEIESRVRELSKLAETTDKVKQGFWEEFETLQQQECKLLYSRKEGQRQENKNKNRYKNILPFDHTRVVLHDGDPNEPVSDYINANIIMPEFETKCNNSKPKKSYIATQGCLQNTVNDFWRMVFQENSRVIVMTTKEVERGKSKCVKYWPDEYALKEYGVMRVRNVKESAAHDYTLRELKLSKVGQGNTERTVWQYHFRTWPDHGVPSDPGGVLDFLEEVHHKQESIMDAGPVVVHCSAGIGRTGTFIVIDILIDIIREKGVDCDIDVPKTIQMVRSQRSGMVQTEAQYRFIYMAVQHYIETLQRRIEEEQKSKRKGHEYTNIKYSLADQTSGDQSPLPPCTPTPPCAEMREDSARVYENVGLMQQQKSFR

Structure (SMILES) | IC50 (SHP2) | activity at 3 µM [1]
Nc1nc(N2CCC3(CCC[C@H]3N)CC2)cnc1-c1cccc(Cl)c1Cl [compound 9, (R)-8-(6-amino-5-(2,3-dichlorophenyl)pyrazin-2-yl)-8-azaspiro[4.5]decan-1-amine] | 73 nM | 118%
CC1CCC2(CCN(c3cnc(Sc4ccnc(N)c4Cl)cn3)CC2)[C@@H]1N (stereo partly drawn) [compound 20, (1R)-8-(5-((2-amino-3-chloropyridin-4-yl)thio)pyrazin-2-yl)-2-methyl-8-azaspiro[4.5]decan-1-amine] | 6 nM | 54.7%
Nc1nc(N2CCC3(CCCN3)CC2)cnc1-c1cccc(Cl)c1Cl [compound 8, 3-(2,3-dichlorophenyl)-6-(1,8-diazaspiro[4.5]decan-8-yl)pyrazin-2-amine] | 155 nM | 99.9%
Nc1nc(N2CCC3(CC2)COC[C@H]3N)cnc1Sc1cccnc1C(F)(F)F [compound 10, (S)-8-(6-amino-5-((2-(trifluoromethyl)pyridin-3-yl)thio)pyrazin-2-yl)-2-oxa-8-azaspiro[4.5]decan-4-amine] | 25 nM | –
Nc1nccc(Sc2cnc(N3CCC4(CC3)COC[C@H]4N)cn2)c1Cl [compound 24, (S)-8-(5-((2-amino-3-chloropyridin-4-yl)thio)pyrazin-2-yl)-2-oxa-8-azaspiro[4.5]decan-4-amine] | 6 nM | 43.5%
Nc1nc(N2CCC(N)(CF)CC2)cnc1Sc1cccc(NC(=O)c2c(O)nc3ccccn3c2=O)c1Cl [compound 52, N-(3-((3-amino-5-(4-amino-4-(fluoromethyl)piperidin-1-yl)pyrazin-2-yl)thio)-2-chlorophenyl)-2-hydroxy-4-oxo-4H-pyrido[1,2-a]pyrimidine-3-carboxamide] | 5 nM | 67.9%
Cn1c(N2CCC3(CCC[C@H]3N)CC2)nc2n[nH]c(-c3cccc(Cl)c3Cl)c2c1=O [compound 37, (R)-6-(1-amino-8-azaspiro[4.5]decan-8-yl)-3-(2,3-dichlorophenyl)-5-methyl-2,5-dihydro-4H-pyrazolo[3,4-d]pyrimidin-4-one] | 26 nM | 45%
CC[C@@H]1OCC2(CCN(c3cnc(Sc4ccnc(N)c4Cl)c(N)n3)CC2)[C@@H]1N [compound 17, (3S,4S)-8-(6-amino-5-((2-amino-3-chloropyridin-4-yl)thio)pyrazin-2-yl)-3-ethyl-2-oxa-8-azaspiro[4.5]decan-4-amine] | 9 nM | 29.4%
CC1(N)CCN(c2cnc(Sc3cccc(NC(=O)C4=C(O)CN(c5ccccc5)C4=O)c3Cl)c(N)n2)CC1 [compound 46, N-(3-((3-amino-5-(4-amino-4-methylpiperidin-1-yl)pyrazin-2-yl)thio)-2-chlorophenyl)-4-hydroxy-2-oxo-1-phenyl-2,5-dihydro-1H-pyrrole-3-carboxamide] | 4 nM | 70.9%
Nc1nc(N2CCC(N)(CF)CC2)cnc1Sc1cccc(NC(=O)c2c(O)nc3n(c2=O)CCCC3)c1Cl [compound 51, N-(3-((3-amino-5-(4-amino-4-(fluoromethyl)piperidin-1-yl)pyrazin-2-yl)thio)-2-chlorophenyl)-2-hydroxy-4-oxo-6,7,8,9-tetrahydro-4H-pyrido[1,2-a]pyrimidine-3-carboxamide] | 6 nM | 94%
CN1C(=O)C(C(=O)Nc2cccc(Sc3ncc(N4CCC(C)(N)CC4)nc3N)c2Cl)=C(O)C1Cc1ccccc1 (stereo not drawn) [compound 54, N-(3-((3-amino-5-(4-amino-4-methylpiperidin-1-yl)pyrazin-2-yl)thio)-2-chlorophenyl)-5-benzyl-4-hydroxy-1-methyl-2-oxo-2,5-dihydro-1H-pyrrole-3-carboxamide] | – | 132%
C[C@@H]1OCC2(CCN(c3nc(N)c(Sc4cccnc4C(F)(F)F)c(=O)n3C)CC2)[C@@H]1N [compound 25, 6-amino-2-((3S,4S)-4-amino-3-methyl-2-oxa-8-azaspiro[4.5]decan-8-yl)-3-methyl-5-((2-(trifluoromethyl)pyridin-3-yl)thio)pyrimidin-4(3H)-one] | – | 52.5%
